In publication PMC6567057, “Pharmacokinetic, metabolic stability, plasma protein binding and CYP450s inhibition/induction assessment studies of N-(2-pyridylmethyl)-2-hydroxiymethyl-1-pyrrolidinyl-4-(3-chloro-4-methoxy-benzylamino)-5-pyrimidine-carboxamide as potential type 5 phosphodiesterase inhibitors” (Animal Cells and Systems, 2019):

Columns and labels:
[1] = Stability in plasma, 6 h incubation at 37°C (dog); format: in vitro ADME; details: beagle
Description: (§1) The phosphate buffer (100 mM) and sodium hydroxide solution (1.0 M) were prepared in deionized water. […] PPB was determined by equilibrium dialysis method. An aliquot (150 μL) of NHPPC spiked plasma and phosphate buffer (pH 7.4) was added into the donor side and the receiver side of each designated well. The plate was covered with adhesive sealing film to prevent evaporation and placed in a water-bath shaker kept at 37°C for 6 h with a rate of 50 rpm. […] At the end of 6 h, aliquots were taken from each side of each well (n = 3) and kept in a −20°C freezer prior to analysis. The stability, device recovery and PPB were calculated using the following equations: Remaining at 6 h (%)=C6h/C0h×100%, Device recovery (%)=CDonor+CReceiver/C6h×100%, PPB (%)=CDonor−CReceiver/CDonor×100%.

[2] = Stability in plasma, 6 h incubation at 37°C (human); format: in vitro ADME
Description: as §1

[3] = Plasma protein binding by equilibrium dialysis (rat); format: in vitro ADME, Sprague–Dawley rat; details: Sprague-Dawley
Description: as §1

rat plasma proteins = experiment: as above; format: in vitro ADME, Sprague–Dawley rat; details: rat plasma, mean of 0.2 and 1 µM
Description: as §1

[4] = Plasma protein binding by equilibrium dialysis (human); format: in vitro ADME
Description: as §1

human plasma proteins = experiment: as above; format: in vitro ADME; details: human plasma, mean of 0.2 and 1 µM
Description: as §1

CYP1A2 = experiment: CYP induction in human primary hepatocytes; format: in vitro ADME; details: CYP1A2, human primary hepatocytes of three batches, 0.10, 1.00 or 10.0 μM, 72 h
Description: (§2) The hepatocytes were seeded on a collagenated 48-well plate for 24 h in an incubator at 37°C (moisturized, with 5% CO2). The hepatocytes were then incubated with the test article thereafter. The stock solutions of omeprazole (100 mM), rifampin (20.0 mM), testosterone (200 mM), phenacetin (100 mM) and NHPPC (50.0 mM) were prepared in DMSO, and were diluted using the cell culture medium. The DMSO content in the final solutions was 0.10%, the medium containing 0.10% DMSO was used as the blank control. The cells were co-incubated with the positive control inducers or NHPPC for 72 h and during the incubation the medium was changed every day. After the incubation, the medium was discarded and replaced with 200 μL phenol red-free culture medium containing 100 μM phenacetin (CYP1A2 probe substrate) or 200 μM testosterone (CYP3A4 probe substrate). After the incubation in the presence of the probe substrates at 37°C for 1 h, the supernatants were collected and stored at −80°C until analysis. All incubations were also conducted in triplicate. The generated metabolites of the CYP1A2 and CYP3A4 probe substrates were analyzed by LC/MS/MS methods. The induction effects of the positive control inducers and NHPPC were assessed by the amount of metabolites formed in the induced and uninduced hepatocytes. The percent induction of positive control was calculated using the following equation. […]

CYP3A4 = experiment: CYP induction in human primary hepatocytes; format: in vitro ADME; details: CYP3A4, human primary hepatocytes of three batches, 0.10, 1.00 or 10.0 μM, 72 h
Description: as §2

[5] = In vivo pharmacokinetic study in rats; set-up: species or system male Sprague–Dawley rats; details: rat; for MRT inf: read-out: MRT0-∞
Description: For the iv experiment, male SD rats (n = 3) were given a single dose of NHPPC (1 mg/kg) over 1 min by dorsal venous arch of foot. Approximately 200 µL blood samples were collected at 5, 15, 30 min and 1, 2, 4, 6, 8 and 24 h post-dose via tail vein into heparinized (coated with 0.1% heparin in saline) tubes. For the oral experiments, the male rats (n = 3) were given a single dose of 2 mg/kg. Then the blood samples were collected at 10, 30 min and 1, 2, 4, 6, 8 and 24 h post-dose. Plasma was obtained after centrifugation at 8000 rpm for 6 min (4°C) within 10 min of blood-drawing and stored at –70°C until they were analyzed.
Data analysis including analyte/IS was acquired using Analyst version 1.6.1 software (AB SCIEX). All pharmacokinetic parameters (for example: K10, AUC0–t, AUC0-∞, Cmax, Tmax, t1/2, CL, Vss, MRT0–∞, etc.) were analyzed based on a non-compartmental model and using Pharsight WinNonlin version 6.3 (St. Louis, USA). The area under the concentration time curve (AUC0–t and AUC0–∞) was calculated by linear trapezoidal rule. The natural logarithms (Ln) of the fraction remaining against incubation times (min) was plotted and the first-order rate constant of turnover is determined by a linear regression model. The final results (for example: the mean, standard deviation, the remaining, device recovery, ke, bioavailability, etc.) were electronically exported into Excel 7.0 (Redmond, USA) for data processing and formatting.

[6] = In vivo pharmacokinetic study in dogs; set-up: species or system male Beagle dogs; details: dog; for MRT inf: read-out: MRT0-∞
[7] = 0.2 µM, n = 3, read-out: Mean drug remaining %
[8] = 1 µM, n = 3, read-out: Mean drug remaining %
[9] = mean of 0.2 and 1 µM, read-out: Mean drug remaining %
[10] = male, Sprague-Dawley, plasma, IV 1 mg/kg
[11] = male, Sprague-Dawley, plasma, PO 2 mg/kg
[12] = male, Beagle, plasma, IV 1 mg/kg
[13] = male, Beagle, plasma, PO 1 mg/kg

Q: What does the source list for `COc1ccc(CNc2nc(N3CCC[C@H]3CO)ncc2C(=O)NCc2ccccn2)cc1Cl` [NHPPC, N-(2-pyridylmethyl)-2-hydroxiymethyl-1-pyrrolidinyl-4-(3-chloro-4-methoxy-benzylamino)-5-pyrimidine-carboxamide]?
A: remaining at 6 h, 0.2 µM [1, 7]: 99.6 ± 0.53%; remaining at 6 h, 1 µM [1, 8]: 100.4 ± 0.98%; remaining at 6 h [1, 9]: 100 ± 1.24%; remaining at 6 h, 0.2 µM [2, 7]: 99.8 ± 1.37%; remaining at 6 h, 1 µM [2, 8]: 102 ± 1.5%; remaining at 6 h [2, 9]: 101 ± 1.23%; recovery at 6 h, 0.2 μM ([3]; pH 7.4, rat plasma, equilibrium dialysis, n = 3, read-out: Mean device recovery %): 98.6 ± 0.13%; fraction unbound at 6 h, 0.2 µM ([3]; rat, plasma, pH 7.4, rat plasma, 0.2 µM, equilibrium dialysis 6 h, read-out: Mean PPB % (converted)): 0.043; fraction unbound at 6 h, 1 µM ([3]; rat, plasma, pH 7.4, rat plasma, 1 µM, equilibrium dialysis 6 h, read-out: Mean PPB % (converted)): 0.033; fraction unbound at 6 h ([3]; rat, plasma, pH 7.4, rat plasma, mean of 0.2 and 1 µM, read-out: Mean PPB %): < 0.05; Mean PPB % (rat plasma proteins): 96.2 ± 0.18%; fraction unbound at 6 h, 0.2 µM ([4]; human, plasma, pH 7.4, human plasma, 0.2 µM, equilibrium dialysis 6 h, read-out: Mean PPB % (converted)): 0.007; fraction unbound at 6 h, 1 µM ([4]; human, plasma, pH 7.4, human plasma, 1 µM, equilibrium dialysis 6 h, read-out: Mean PPB % (converted)): 0.005; recovery at 6 h, 0.2 μM ([4]; pH 7.4, human plasma, equilibrium dialysis, n = 3, read-out: Mean device recovery %): 101.2 ± 0.02%; Mean PPB % (human plasma proteins): 99.4 ± 0.13%; percent induction of positive control (CYP1A2): less than 40%; percent induction of positive control (CYP3A4): less than 40%; AUC(0-inf) [5, 10]: 866 ± 201 ng·h/mL; AUC(0-t) [5, 10]: 847 ± 195 ng·h/mL; clearance [5, 10]: 19.8 mL/min/kg; half-life [5, 10]: 4.55 ± 0.11 h; MRT inf [5, 10]: 5.5 ± 0.36 h; Vd ([5]; male, Sprague-Dawley, plasma, IV 1 mg/kg, read-out: Vss): 6.5 ± 1 L/kg; AUC(0-inf) [5, 11]: 593 ± 137 ng·h/mL; AUC(0-t) [5, 11]: 583 ± 135 ng·h/mL; Cmax [5, 11]: 52.6 ± 12.9 ng/mL; Tmax [5, 11]: 6 h; half-life [5, 11]: 4.02 ± 0.39 h; MRT inf [5, 11]: 7.8 ± 0.79 h; K10 ([5]; IV 1 mg/kg): 0.15 ± 0.00 h⁻¹; K10 ([5]; PO 2 mg/kg): 0.17 ± 0.02 h⁻¹; K10 ([6]; IV 1 mg/kg): 0.52 ± 0.03 h⁻¹; K10 ([6]; PO 1 mg/kg): 0.45 ± 0.06 h⁻¹; BA ([6]; PO 1 mg/kg vs IV 1 mg/kg, 1 mg/kg): 53.1 ± 14.2%; AUC(0-inf) [6, 12]: 685 ± 40 ng·h/mL; AUC(0-t) [6, 12]: 679 ± 38.5 ng·h/mL; clearance [6, 12]: 24.3 mL/min/kg; half-life [6, 12]: 1.33 ± 0.06 h; MRT inf [6, 12]: 1.15 ± 0.04 h; Vd ([6]; male, Beagle, plasma, IV 1 mg/kg, read-out: Vss): 1.68 ± 0.08 L/kg; AUC(0-inf) [6, 13]: 364 ± 97.4 ng·h/mL; AUC(0-t) [6, 13]: 351 ± 96.1 ng·h/mL; Cmax [6, 13]: 144 ± 35.3 ng/mL; Tmax [6, 13]: 0.5 h; half-life [6, 13]: 1.57 ± 0.22 h; MRT inf [6, 13]: 2.54 ± 0.15 h; Tmax ([6]; male, beagle, plasma, PO 1 mg/kg): 0.5 to 1 h
